The text below walks through data of patent US7709514B2, “Therapeutic molecules and methods-1” (Cortical Pty Ltd, priority 2002, dated 2010).

pEC50: −log10 of the molar value. Entries after “also recorded” stand apart in the source; their conditions may differ. Like-named read-outs stand apart in the source and are kept apart here.

In experiment [1] the test system is antigen-specific T cell activation. Description: antigen-specific (mBSA) activation of splenic T lymphocytes, 3H-thymidine incorporation. The experiment is classed as cell-based, mice. To be noted: Mus musculus, T-cell, read-out: EC50, inhibition of T cell activation. How it is done:
C57BL6/J male mice, aged 7-10 weeks old, were immunised with 200 μg of methylated bovine serum albumin (mBSA) dissolved in 20 μL of saline, emulsified in 200 μL of Freund's complete adjuvant (FCA) by subcutaneous injection. Seven (7) days later mice received a booster immunisation with 100 μg mBSA in 10 μL saline plus 100 μL FCA by subcutaneous injection. After a further seven (7) days mice were killed and spleens collected aseptically into Hanks buffered saline solution (HBSS). A single cell suspension was prepared in Petri dishes by flushing DMEM using a 26G needle and 2 mL syringe. The resulting cell suspension was centrifuged for 5-7 minutes and supernatant discarded. Erythrocytes were lysed using a solution containing 0.579% NH4Cl, 0.000037% EDTA, and 0.1% NaHCO3 in a 37° C. water bath. Tubes were then filled with DMEM and centrifuged for 5-7 minutes. The cell-containing pellet was then resuspended in DMEM containing 5% fetal calf serum TICS) and 0.05% 2-mercapto-ethanol at a concentration of 1×10^6 cells/mL and plated at 1×10^5 cells/well in 96-well plastic tissue culture plates. Test substances (compound or vehicle) were added and incubated for 1 hour in a 37° C., 5% CO2 incubator. The specific stimulating antigen, mBSA, was then added at 10-50 μg/ml and plates incubated for 30 hours in a 37° C., 5% CO2 incubator. Tritiated ^3H-thymidine was then added at a concentration of 0.5 μCi/well for a further 18 hours. Cells were harvested on a Packard cell harvester, and the harvested material added to 750 μL/tube scintillation fluid. Scintillation counts were read on a Wallac beta-emission counter.
The concentration at which T cell activation was suppressed by 50% compared to vehicle-only-treated cells (EC50) was calculated using Prism® software. […] Further compounds were also tested for their ability to inhibit antigen-specific T cell activation as a marker of the inhibition of the cytokine or biological activity of MIF using this assay. Table 5 lists the EC50 for each compound in this assay, performed with concentrations of mBSA of either 50 or 10 μg/ml.
(Incorporation of labelled thymidine or its analogues reports DNA synthesis.)

In experiment [2] the test system is IL-1-induced COX-2 expression. Put plainly: IL-1-induced COX-2 expression in S112 human dermal fibroblasts (MIF-dependent bioassay). The experiment is classed as cell-based. How it is done:
The activity of compounds was studied in a bioassay utilising MIF-dependent activation of human dermal fibroblasts. […] IL-1-induced COX-2 expression is therefore a MIF-dependent event. […] Prior to experimentation, cells were seeded at 10^5 cells/ml in RPMI/0.1% BSA for 18 hours. […] After 6 hours, cells were collected and intracellular COX-2 protein determined by permeabilisation flow cytometry. […] Cellular fluorescence was determined using a flow cytometer. At least 5000 events were counted for each reading, each of which was performed in duplicate, and the results expressed in mean fluorescence intensity (MFI) after subtraction of negative control-labelled cell fluorescence. The effect of each compound was determined by subtracting the IL-1+compound-treated cell MFI from the IL-1-treated cell (control) MFI and expressed as % inhibition. In each case the % inhibition of IL-1-induced COX-2 expression is expressed as the mean, or mean±SEM where results are available from multiple experiments.

Experiment [3] concerns murine peritoneal macrophage cytokine production. Description: inhibition of peritoneal macrophage cytokine production (ELISA). Particulars: Mus musculus. The experiment is classed as cell-based, mice. How it is done: C57BL6/J male mice were injected intraperitoneally with 2 ml of thioglycollate. Five (5) days later peritoneal macrophages were collected by lavaging the peritoneum of anaesthetized mice with 3 ml of cold Hanks buffered saline solution. Cells from several mice were pooled, washed and re-suspended in DMEM supplemented with 5% FCS. Cells were plated in 96 well plastic tissue culture plates at 1×10^5 cells/well. Cells were treated with compound or vehicle for 1 hour in a 5% CO2 incubator at 37° C. Cells were then treated with LPS (10-100 ng/ml) or recombinant human interferon-γ (10 units/ml) and incubated for 24 hours. After 24 hours, 50 μl of supernatant from each well was carefully removed and transferred to ELISA plates. The concentration of interleukin 1 (IL-1) or interleukin 6 (IL-6) was measured by ELISA. The concentration of compound at which LPS- or interferon-γ-induced cytokine release was suppressed by 50% compared to vehicle-only-treated cells (EC50) was calculated using Prism® software. Table 9 lists the EC50 for two compounds tested in this assay.
For orientation: ELISA stands for enzyme-linked immunosorbent assay.

The test system of experiment [4] is murine antigen induced arthritis. Description: murine antigen-induced arthritis, histological score. The experiment is classed as in vivo, mice. The procedure: Antigen-induced arthritis was induced in mice. C57BL6/J male mice, aged 7-10 weeks old, were immunized on day 0 with 200 μg methylated BSA (mBSA) emulsified in 200 μl of Freund's complete adjuvant (FCA) injected subcutaneously into the flank skin. Mice were treated with compound 5, administered by intraperitoneal injection, once per 24 hours at a dose of 15 mg/kg body weight. After seven days, mice received 100 μg mBSA and 100 μl FCA by intradermal injection at the base of the tail. After a further 14 days, arthritis was induced by intra-articular injection of 30 μg mBSA in 10 μl of sterile saline into the left knee, the right knee being injected with sterile saline alone.
Arthritis was analysed histologically at day 28 after first immunisation. Knee joints were dissected and fixed in 10% buffered formalin for 7 days. Fixed tissues were decalcified for 3 weeks in 15% ethylene-diamine-tetra-acetic acid (EDTA), dehydrated and embedded in paraffin. Sagittal sections (5 μm) of the knee joint were stained with Safranin-O and counterstained with fast green/iron hematoxylin. Histological sections were scored from 0 to 3 for four parameters: Synovitis was defined as hyper-cellularity of the synovium including pannus formation. Joint space exudate was identified as leukocytes, discretely or in aggregates, in the joint space. Cartilage degradation was defined as the loss of Safranin-O staining of articular cartilage (0=full stained cartilage, 3=totally unstained cartilage). Bone damage was defined as the extent and depth of the subchondral bone invasion by pannus. A total score was also generated from the sum of these four parameters (maximum 12).

For experiment [5], the system named is lymph node and splenic T cells. Put plainly: ex vivo antigen-specific T cell activation after in vivo treatment. Details: species or system mice. The source says: In vivo administration of such a compound might be expected to exert effects on T cell responsiveness even after the T cells have been removed from exposure to the compound, that is, if T cells were studied ex vivo after in vivo treatment with the MIF antagonist compound. To measure ex vivo antigen-specific T cell activation, draining lymph nodes from arthritic limbs or spleens were removed from mice with murine antigen induced arthritis, induced as above with mBSA, at day 28 after first immunisation and a single cell suspension prepared in DMEM containing 5% FCS and 0.05% 2-mercaptoethanol. 1×10^5 cells/200 μl were cultured in triplicate in the presence or absence of mBSA (0.1, 1.0, 10 μg/ml) in 96-well plates for 48 hours (37° C., 5% CO2.) The T cell proliferation response was determined by measuring ^3H-thymidine incorporation during the final 18 hr. The cells were harvested and radioactivity incorporation into the DNA was measured with a Wallac 1409 liquid scintillation counter. The means of each triplicate culture were calculated. Each experiment comprised at least three individual animals and the results presented represent the mean±SEM of groups of animals in each experiment. The percentage inhibition of T cell proliferation was calculated using the result of the […] incorporation of cells from compound-treated animals subtracted from the ^3H-thymidine incorporation of cells from vehicle-treated animals.

Experiment [6] has as its system IL-1 induced phosphorylation of ERK. Description: IL-1 induced phosphorylation (activation) of ERK, Western blotting. The class given is cell-based, human. To be noted: dexamethasone 10^-9 M alone; human dermal fibroblasts, IL-1 0.1 ng/ml, 30 minutes. How it is done:
S112 human dermal fibroblasts cultured in RPMI (serum-free) medium were stimulated with recombinant human IL-1 0.1 ng/ml, as described herein, for 30 minutes, with or without the addition of dexamethasone 10^−9M or benzimidazol-2-one-5-pentanoate (compound 5) (50 μM). The phosphorylation (activation) of ERK was assessed using Western blotting with a mAb specific for the phosphorylated (activated) form of ERK. In brief, cells were disrupted by repeated aspiration through a 21-gauge needle. After incubation on ice for 10 min and microcentrifugation at 3000 rpm for 15 min (4° C.), the supernatants were removed, the protein concentration was determined, and the lysates were stored at −80° C. Equal amounts of cellular proteins were fractionated on 10% SDS-polyacrylamide electrophoresis gels and transferred to polyvinylidene difluoride membranes. Immunoblotting was performed using antibodies directed against phospho-p44/42 (ERK) and total p44142 according to the manufacturer's instructions. The intensity of ERK activation is proportional to the size and optical density (darkness) of the resulting blots. Total ERK blots serve as a loading control, such that changes in phosphorylated ERK represent changes in phosphorylation and not in total ERK protein.
(A western blot detects proteins with antibodies after separation by electrophoresis.)

Consider `O=C(NCCc1ccc(O)c(O)c1)c1ccc2[nH]c(=O)[nH]c2c1` [Compound 13, N-(3,4-dihydroxyphenethyl)-2-oxo-2,3-dihydro-1H-1,3-benzimidazole-5-carboxamide], for which the pEC50 in experiment [1] (mBSA 10 μg/ml) is 4.27; in experiment [1] (mBSA 50 μg/ml) it was 4.14; in experiment [3] (Interferon-γ 10 units/ml, read-out: EC50, IL-6 release), 5.01; in experiment [3] ([LPS] 100 ng/mL, read-out: EC50, IL-1 release), 4.78. In experiment [2] (Homo sapiens, Fibroblast, compound 1 μM, S112 cells, IL-1 0.1 ng/ml, 6 hours), this molecule showed an inhibition at 1 µM of 9.6%. Moreover, the inhibition at 10 µM in experiment [2] (Homo sapiens, Fibroblast, compound 10 μM, S112 cells, IL-1 0.1 ng/ml, 6 hours) is 14.1%. Further, the inhibition at 50 µM in experiment [2] (Homo sapiens, Fibroblast, compound 50 μM, S112 cells, IL-1 0.1 ng/ml, 6 hours, read-out: % inhibition of IL-1-induced COX-2 expression) amounted to 32.2%. The inhibition at 100 µM in experiment [2] (Homo sapiens, Fibroblast, compound 100 μM, S112 cells, IL-1 0.1 ng/ml, 6 hours) was determined as 29.9%. Further, the “Total arthritis score (mean ± SEM)” value in experiment [4] (maximum 12, vehicle 6.25 ± 0.2) came to 5.17 ± 1.9. In addition, in experiment [4] (mouse, in vivo), the “severity of murine antigen induced arthritis” value was “inhibitory effect”. Besides, the “ex vivo splenic T cell proliferation in response to mBSA” value in experiment [5] (FIG. 11b, table 7, vs vehicle) was “reduced proliferative responses”. Besides, in experiment [5] ([mBSA] 10 μg/mL), the “% inhibition of ex vivo splenic T cell activation” value was 28%.
With `C[C@@H]1C[C@H]2[C@@H]3CCC4=CC(=O)C=C[C@]4(C)[C@@]3(F)[C@@H](O)C[C@]2(C)[C@@]1(O)C(=O)CO` [Dexamethasone, dexamethasone], the “% Inhibition of IL-1 induced COX-2 expression” value in experiment [2] (Table 2 experiment, dexamethasone 10^-9 M alone) was 46.8%. In addition, the “ERK activation by IL-1” value in experiment [6] was “does not inhibit; also recorded: not inhibited”.

The term pEC50 denotes −log10 of the EC50, conventionally taken in molar units. As a reminder, the inhibition is the percentage by which the read-out fell short of the control.
